Laboratory results published in patent publication US7087809B2, “Natural herbicide resistance in wheat” (Natural Genes, Inc., priority 2003, dated 2006).

Experiments:
Format in all cases: in vivo, Triticum aestivum
[1] = tested on: hard red spring wheat populations (W1 through W15); assay: Soaking of wheat seeds in glyphosate herbicide solution, planting in herbicide-treated growing medium, count of surviving plants; conditions: for Surviving plants after seed treatment: seed soaking and planting; for Number of Surviving Wheat Plants: approx. 5,000 seeds
Procedure: Preferably the wheat seeds are soaked in an aqueous solution of the herbicide. Commonly the herbicide is present in the solution in a concentration of approximately 1.5 to 6 percent by weight, and most preferably in a concentration of approximately 2 percent by weight. Commonly the wheat seeds are simply immersed in the liquid comprising the herbicide. The soaking of wheat seeds is conducted for a period of time that is sufficient for the herbicide to reach the embryos of the wheat seeds. […] The liquid comprising the herbicide can be simply provided at room temperature when the wheat seeds are in contact with the liquid and are undergoing such soaking.
Alternatively, such screening of the resulting wheat plants for herbicide resistance can include the presence of the herbicide in the growing medium where the resulting seeds are planted. Good results are obtained in a preferred embodiment when one gallon of a solution containing the herbicide in a concentration of approximately 1.5 to 6 percent by weight is added to each 4 gallons of soil. The presence of the herbicide in the soil helps to assure that an atypical wheat seed having a harder seed coat has not given a false indication of herbicide resistance by its survival up to the point of germination.
Some varieties have produced no surviving plants in tests to date. Some varieties have produced up to approximately 4 surviving plant per 5,000 seeds, others approximately 1 surviving plant per 5,000 seeds. The herbicide resistance of the resulting plants can be further confirmed by another contact (e.g., spraying) with the glyphosate herbicide.
Fifteen different known and publically available hard red spring wheat populations (W1 through W15) were chosen for evaluation and screening in accordance with the process of the present invention. Each of the starting materials was believed to lack herbicide resistance that is attributable to genetic engineering. Also, each population, as all other Triticum aestivium varieties, was regarded to be highly sensitive to glyphosate herbicide during previous observations.
Individual batches of each wheat population were initially immersed and were soaked in 2 percent aqueous solutions of glyphosate herbicide that were present at room temperature. The wheat seeds were provided in contact with the glyphosate herbicide for a period of 6 hours during which time the glyphosate herbicide reached the embryos of the seeds.
Each wheat seed population was labeled and next was planted in a 50/50 sandy-loam top soil/peat growing medium. The wheat seeds were present in flats containing the growing medium at a depth of approximately 2 inches. The same 2 percent by weight aqueous solutions of glyphosate herbicide were poured into each growing medium containing the wheat seeds.
The flats containing the wheat seeds next were placed in a greenhouse under ambient conditions in an effort to achieve germination. The sandy-loam top soil/peat growing medium was periodically watered in an effort to achieve near field growing conditions except for the presence of glyphosate herbicide.
Of those that did germinate some died within the first 2 days, and only 6 of the 15 wheat populations produced any plants following the soaking in the glyphosate herbicide as reported in Table I. These 6 populations were W1 to W5 and W15. Each plant was carefully preserved and tagged in order to preserve the lineage for those that survived the exposure to the glyphosate herbicide at the seed stage.

[2] = tested on: wheat selections of 'WA7824'/'Zeke' pedigree; assay: Glyphosate herbicide treatment of selections grown in greenhouse flats (after field head row treatment); conditions: 1.2 percent by weight aqueous solution sprayed at three-leaf stage; for Number Killed by Glyphosate Herbicide Treatment / Number of Survivors of Glyphosate Herbicide Treatment: greenhouse flats
Text: The wheat seedlings arising from the germination of this planting were allowed to establish and grow to the three-leaf stage. At this stage of growth glyphosate herbicide was applied to the plants at a rate of 32 oz. per Acre. Survivors of this treatment were allowed to mature, to undergo self-pollination, and the heads from each plant were tagged, removed, and placed in individual containers to ensure a record of continuous lineage from the plants used in the increase (i.e., W2-1-h10-p1-la through 6a and W2-4-h9-p1-la through 10a). Seeds from each head removed from the surviving plants that were exposed to glyphosate herbicide in the field head row plots next were planted in flats in the greenhouse for germination and seedling establishment. The seeds from each head were planted in separate flats to maintain the integrity of each line. At the three-leaf stage, the resulting seedlings were sprayed with an aqueous 1.2 percent by weight solution of glyphosate herbicide. Surviving plants were allowed to grow to maturity, to undergo self-pollination, and to produce heads and seeds. This was done to ensure that the survivors of the glyphosate herbicide treatment also remained fertile and produced viable seeds.

[3] = tested on: wheat plants of the 64 flats (progeny of surviving plants); assay: Spraying of progeny seedlings of surviving plants with glyphosate herbicide at the three-leaf stage in the greenhouse; conditions: 1.2 percent aqueous solution sprayed at three-leaf stage
Text: Fifteen seeds from each head of each surviving plant were next planted in 64 individual flats in a greenhouse containing a like 50/50 sandy-loam top soil/peat growing medium. A designation system was adopted which began with the initial Wheat Population Designation (e.g., W1) next followed by the plant number (e.g., −1, −2 for W1), and finally followed by the head number (e.g., h1). The wheat plants of the 64 flats were identified as follows:
The seeds were encouraged to germinate and wheat plants emerged. At the three-leaf stage a 1.2 percent aqueous solution of glyphosate herbicide was applied to the plants by spraying. […] Remnant seeds from these 2 plants taken from heads W2-1-h10 and W2-4-h9 were planted in the greenhouse, germinated, and underwent self-pollination to increase the seeds. Plants derived from these seeds were not subjected to the glyphosate herbicide in an effort to maximize yield and to establish a germplasm base for further testing. W2-1-h10 produced six healthy plants that were designated W2-1-h10-p1-1a through -6a. The “a” designation served to specify that the generation was not treated with glyphosate herbicide. Similarly, W2-4-h9 produced 10 plants that were designated W2-4-h9-p1-1a through 10a. All plants were allowed to mature, to undergo self-pollination, and to produce seed heads. Each head was tagged to maintain a clear record of lineage. […]

## O=C(O)CNCP(=O)(O)O [glyphosate herbicide, N-(phosphonomethyl)glycine]
[1]; approx. 75,000 seeds of 15 populations, 2 percent aqueous glyphosate, 6 hours soak, observed 10 to 15 days
  Germination of glyphosate herbicide-treated seeds: failed to germinate
[1]; other varieties
  Surviving plants after seed treatment: approximately 1 surviving plant per 5,000 seeds
[1]; populations W1 through W15, 2 percent aqueous glyphosate, 6 hours soak
  Number of wheat populations (of 15) that produced any plants following the soaking: 6
[1]; some varieties
  Surviving plants after seed treatment: ≤ 4 surviving plant per 5,000 seeds
[1]; wheat population W1 ('ID377'/'WestBred 926'), 2 percent aqueous glyphosate, 6 hours soak, same solution in growing medium
  Number of Surviving Wheat Plants: 4
[1]; wheat population W2 ('WA7824'/'Zeke'), 2 percent aqueous glyphosate, 6 hours soak, same solution in growing medium
  Number of Surviving Wheat Plants: 5
[1]; wheat population W3 ('SLW97606'/'WestBred 926'), 2 percent aqueous glyphosate, 6 hours soak
  Number of Surviving Wheat Plants: 1
[1]; wheat population W4 ('SLW97606'/'WestBred 936'), 2 percent aqueous glyphosate, 6 hours soak
  Number of Surviving Wheat Plants: 2
[1]; wheat population W5 ('SLW97606'/'Zeke'), 2 percent aqueous glyphosate, 6 hours soak
  Number of Surviving Wheat Plants: 1
[1]; wheat population W6 ('BZ692-108b'/'Calorwa'), 2 percent aqueous glyphosate, 6 hours soak
  Number of Surviving Wheat Plants: 0
[1]; wheat population W7 ('BZ966-472w'/'Pristine'), 2 percent aqueous glyphosate, 6 hours soak
  Number of Surviving Wheat Plants: 0
[1]; wheat population W8 ('Hank'/'BZ994-484'), 2 percent aqueous glyphosate, 6 hours soak
  Number of Surviving Wheat Plants: 0
[1]; wheat population W9 ('MT9959'/'Hank'), 2 percent aqueous glyphosate, 6 hours soak
  Number of Surviving Wheat Plants: 0
[1]; wheat population W10 ('McNeal'/'Parshall'), 2 percent aqueous glyphosate, 6 hours soak
  Number of Surviving Wheat Plants: 0
[1]; wheat population W11 ('Reeder'/'Conan'), 2 percent aqueous glyphosate, 6 hours soak
  Number of Surviving Wheat Plants: 0
[1]; wheat population W12 ('WA7899'/'Jefferson'), 2 percent aqueous glyphosate, 6 hours soak
  Number of Surviving Wheat Plants: 0
[1]; wheat population W13 ('Alpowa'/'Zak'), 2 percent aqueous glyphosate, 6 hours soak
  Number of Surviving Wheat Plants: 0
[1]; wheat population W14 ('Vanna'/'Zak'), 2 percent aqueous glyphosate, 6 hours soak
  Number of Surviving Wheat Plants: 0
[1]; wheat population W15 ('Zak'/'BZ698-41'), 2 percent aqueous glyphosate, 6 hours soak
  Number of Surviving Wheat Plants: 4
[2]; all selections from field head rows
  Tolerance of plants of the selections to the herbicide: All selections generated plants that were tolerant to the herbicide
[2]; selection W2-1-h10-p16a-h2-h1
  Number Killed by Glyphosate Herbicide Treatment: 0
  Number of Survivors of Glyphosate Herbicide Treatment: 10
[2]; selection W2-1-h10-p16a-h2-h5
  Number Killed by Glyphosate Herbicide Treatment: 0
  Number of Survivors of Glyphosate Herbicide Treatment: 15
[2]; selection W2-4-h9-p13a-h2-h17
  Number Killed by Glyphosate Herbicide Treatment: 0
  Number of Survivors of Glyphosate Herbicide Treatment: 3
[2]; selection W2-4-h9-p13a-h2-h18
  Number Killed by Glyphosate Herbicide Treatment: 0
  Number of Survivors of Glyphosate Herbicide Treatment: 5
[3]; seedlings derived from W1-2
  Seedlings surviving the application of glyphosate herbicide: single seedling
[3]; seedlings derived from W2-4
  Seedlings surviving the application of glyphosate herbicide: single seedling
